Laboratory results reported in US7323541B2, “Polypeptide DNA thereof and use of the same” (Takeda Pharmaceutical Company Limited, priority 2001, dated 2008).

Tests used:
Format in all cases: cell-based, human
[1] = test system: HCT 116; experiment: Apoptosis induction (Cell Death Detection ELISA PLUS); settings: for Apoptosis inducing activity (A405-A492), Average: HCT 116, oligonucleotide 520 nM, three days
Method: (§1) Human colon cancer cell line COLO 205 acquired from ATCC was suspended in the RPMI-1640 medium (containing 25 mM HEPES) supplemented with 10% fetal calf serum (ATCC), and seeded at the cell density of 4000 per well in 96-well collagen type I coated plate (IWAKI). Human colon cancer cell line LS 174T acquired from ATCC was suspended in the Eagle's MEM, which is supplied from Invitrogen, supplemented with 10% fetal calf serum (ATCC), and seeded at the cell density of 3000 per well in 96-well flat bottom culture plate (BD Falcon). Human colon cancer cell line HCT 116 (ATCC) was suspended in D-MEM medium (containing 10 mM HEPES), which is supplied from Invitrogen, supplemented with 10% fetal calf serum (ATCC), and seeded at the cell density of 3000 per well in 96-well flat bottom culture plate (BD Falcon). After incubation under 5% CO2 gas flow at 37° C. for overnight, antisense oligonucleotide was transfected.
(§2) Antisense oligonucleotide sequence (SEQ ID NO: 123), which hybridizes to the translation region of TGR23 gene, was designed. Phosphorothioate-oligonucleotide was synthesized and purified by HPLC to use the transfection experiment (hereinafter, referred to as antisense oligonucleotide). For control, a reverse sequence (SEQ ID NO: 124) of the base sequence represented by SEQ ID NO: 123 was phosphorothioated and purified by HPLC to use (hereinafter, referred to as control oligonucleotide).
(§3) Specifically, in the case of COLO 205, to FuGENE™6 Transfection Reagent (Roche Diagnostics), which was diluted 167 fold with Opti-MEM I (Invitrogen), antisense oligonucleotide or control oligonucleotide was added. The mixed oligonucleotide solution was added to the plate at the ratio of 65 μl per well. The final concentration of oligonucleotide was adjusted to 200 nM. In the case of LS 174T, to Lipofectamine™2000 (Invitrogen), which was diluted 32 fold with Opti-MEM I (Invitrogen), antisense oligonucleotide or control oligonucleotide, which was diluted with Opti-MEM I (Invitrogen), was added at the ratio of 1:1. The mixed oligonucleotide solution was added to the plate at the ratio of 50 μl per well. The final concentration of oligonucleotide was adjusted to 33 nM. In the case of HCT 116, to OLIGOFECTAMINE™ Reagent (Invitrogen), which was diluted 5 fold with Opti-MEM I (Invitrogen), antisense oligonucleotide or control oligonucleotide, which was diluted with Opti-MEM I (Invitrogen), was added at the ratio of 3:8. The mixed oligonucleotide solution was added to the plate at the ratio of 40 μl per well. The final concentration of oligonucleotide was adjusted to 520 nM.
(§4) Under the above conditions, culture was continued for further three days. Using Cell Death Detection ELISA^PLUS Kit (Roche Diagnostics), in accordance with the attached protocol, apopyosis induction activity by the above oligonucleotide was measured.

[2] = test system: COLO 205; experiment: as above; settings: for Apoptosis inducing activity (A405-A492), Average: COLO 205, oligonucleotide 200 nM, three days
Method: as §1, §2, §3, §4

[3] = test system: LS 174T; experiment: as above; settings: for Apoptosis inducing activity (A405-A492), Average: LS174T, oligonucleotide 33 nM, three days
Method: as §1, §2, §3, §4

[4] = test system: TGR23 gene in LS 174T; experiment: Reduction of TGR23 gene expression (TaqMan PCR); settings: overnight after transfection
Method: (§5) The human colon cancer cell lines COLO 205 and LS 174T, wherein both were used in Example 46, were suspended in the same medium as that used in Example 46. The COLO 205 was seeded at the cell density of 24,000 per well to 24-well collagen type I coated plate (IWAKI), and the LS 174T was seeded at the cell density of 18,000 per well to 24-well flat bottom tissue culture plate (BD Falcon). After cell culture under 5% CO2 gas flow at 37° C. for overnight, in accordance with the method described in Example 46, the antisense oligonucleotide and control oligonucleotide, wherein both were used in Example 46, were transfected. Herein, adding volume of the oligonucleotide solution per well was 390 μl for COLO 205 and 300 μl for LS 174T. After transfection, the cells were cultured under 5% CO2 gas flow at 37° C. for overnight. Subsequently, using RNeasy Mini Total RNA Kit (QIAGEN), total RNA was extracted. Using the thus obtained total RNA as a template and TaqMan Reverse Transcription Reagents (Applied Biosystems), according to the attached protocol, reverse transcription reaction was carried out. Then using TaqMan Universal PCR Master Mix (Applied Biosystems), to the reaction sixture, cDNA corresponding 1.5 to 3 ng of total RNA as a template, 500 nM each of two primers (SEQ ID NO: 9 and SEQ ID NO: 10) and 100 nM FM-labeled probe (SEQ ID NO: 11) were added. The expressed copy numbers of the TGR23 gene were measured. The PCR reaction comprised the incubation at 50° C. for 2 minutes and 95° C. for 10 minutes, followed by the cycle set to include at 95° C. for 15 seconds and at 60° C. for one minute, which is repeated 40 times. When the antisense oligonucleotide and the control oligonucleotide were not transfected, an expression level of the TGR23 gene per 1 ng of total RNA was 620 copies for COLO 205 and 290 copies for LS 174T, whereas in the group with antisense oligonucleotide, it was 210 copies for COLO 205 and 150 copies for LS 174T. […] On the other hand, in the group with control oligonucleotide used as a negative control, the expression was 590 copies for COLO 205 and 280 copies for LS 174T, wherein it was not observed a statistically significant reduction of expression level, compared with non-transfection group.

[5] = test system: TGR23 gene in COLO 205; experiment: Reduction of TGR23 gene expression (TaqMan PCR); settings: COLO 205, overnight after transfection
Method: as §5

Substance	apoptosis induction activity compared with control oligonucleotide ([1]; HCT 116, in which TGR23 is not expressed)	Apoptosis inducing activity (A405-A492), Average [1]	Apoptosis inducing activity (A405-A492), Average [2]	apoptosis induction activity relative to control oligonucleotide ([2]; COLO 205, p≦0.05) [fold]	Apoptosis inducing activity (A405-A492), Average [3]	apoptosis induction activity relative to control oligonucleotide ([3]; LS 174T, p≦0.01) [fold]	expression level of the TGR23 gene per 1 ng of total RNA [4] [copies]	expression level of the TGR23 gene per 1 ng of total RNA [5] [copies]
antisense oligonucleotide: phosphorothioate oligonucleotide which hybridizes to the translation region of TGR23 gene (antisense GACCCACAGAGTTATCAATT; DNA, all phosphorothioate, methylation of C not given here)	did not exhibit a significant apoptosis induction activity	0.68	0.83	1.6	1.1	1.3	150	210
control oligonucleotide: phosphorothioated reverse sequence of SEQ ID NO: 123, negative control (TTAACTATTGAGACACCCAG; DNA, all phosphorothioate, methylation of C not given here) [reference compound]	–	0.72	0.52	–	0.88	–	280	590
